From paper PMC9519552, “Activation of the human insulin receptor by non-insulin-related peptides” (Nature Communications, 2022)
One block for each molecule: values may come before it. Positions of bridges follow the written chain, without caps; N, C: chain ends. Non-standard residues stand in square brackets, D forms with d. Residues, ends and D or L forms follow the SMILES beside them. *: point of attachment. X1 = NCc1ccc(CC(=O)*)cc1; Aib = CC(C)(N)C(=O)O

What was measured:
[1] = target: T1, human IR-A (holoIR-A) (Homo sapiens, UniProt P06213); test: holoIR-A competitive radioligand binding assay (scintillation proximity assay)
T1 construct: expressed in transfected cells; host or cells: HEK293 (ATCC #CRL-1573), stably transfected; membrane preparation
T1 sequence (P06213 28-1370 isoform P06213-2 limits assumed): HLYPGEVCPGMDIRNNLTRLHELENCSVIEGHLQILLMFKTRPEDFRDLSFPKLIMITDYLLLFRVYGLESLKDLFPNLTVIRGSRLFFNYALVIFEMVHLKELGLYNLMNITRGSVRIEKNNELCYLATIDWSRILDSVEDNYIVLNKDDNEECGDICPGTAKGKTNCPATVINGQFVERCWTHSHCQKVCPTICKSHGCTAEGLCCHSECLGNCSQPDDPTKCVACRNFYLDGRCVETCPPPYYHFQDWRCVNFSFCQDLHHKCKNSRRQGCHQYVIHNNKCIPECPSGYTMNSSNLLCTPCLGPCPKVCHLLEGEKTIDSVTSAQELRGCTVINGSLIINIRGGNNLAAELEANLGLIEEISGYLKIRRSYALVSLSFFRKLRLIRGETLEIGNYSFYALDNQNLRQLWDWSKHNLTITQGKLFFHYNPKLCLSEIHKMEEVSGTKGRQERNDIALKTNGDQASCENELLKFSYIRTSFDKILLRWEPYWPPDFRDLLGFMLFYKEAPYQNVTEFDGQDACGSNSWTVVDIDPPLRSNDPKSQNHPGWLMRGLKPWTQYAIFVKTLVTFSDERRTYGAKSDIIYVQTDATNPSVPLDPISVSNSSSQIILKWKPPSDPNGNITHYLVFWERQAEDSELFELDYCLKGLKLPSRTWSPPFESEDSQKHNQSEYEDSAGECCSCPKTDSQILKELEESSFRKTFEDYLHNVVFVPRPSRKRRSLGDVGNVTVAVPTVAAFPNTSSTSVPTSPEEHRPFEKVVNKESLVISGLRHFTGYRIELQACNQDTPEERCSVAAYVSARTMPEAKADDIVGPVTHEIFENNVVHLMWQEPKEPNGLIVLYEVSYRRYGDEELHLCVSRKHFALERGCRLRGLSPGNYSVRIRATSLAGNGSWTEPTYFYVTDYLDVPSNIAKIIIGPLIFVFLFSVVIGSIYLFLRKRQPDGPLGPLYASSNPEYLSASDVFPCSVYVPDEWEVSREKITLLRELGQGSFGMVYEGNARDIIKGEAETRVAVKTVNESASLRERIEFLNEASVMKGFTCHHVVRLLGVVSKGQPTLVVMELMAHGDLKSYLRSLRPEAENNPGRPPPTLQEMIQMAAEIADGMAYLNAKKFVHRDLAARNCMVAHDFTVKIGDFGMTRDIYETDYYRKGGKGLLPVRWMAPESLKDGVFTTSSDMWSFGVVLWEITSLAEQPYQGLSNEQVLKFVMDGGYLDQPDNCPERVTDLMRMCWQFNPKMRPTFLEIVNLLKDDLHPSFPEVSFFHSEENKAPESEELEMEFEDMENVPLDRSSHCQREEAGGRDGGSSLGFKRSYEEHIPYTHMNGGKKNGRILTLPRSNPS
T1 sequence (P06213 763-1382 partner limits assumed): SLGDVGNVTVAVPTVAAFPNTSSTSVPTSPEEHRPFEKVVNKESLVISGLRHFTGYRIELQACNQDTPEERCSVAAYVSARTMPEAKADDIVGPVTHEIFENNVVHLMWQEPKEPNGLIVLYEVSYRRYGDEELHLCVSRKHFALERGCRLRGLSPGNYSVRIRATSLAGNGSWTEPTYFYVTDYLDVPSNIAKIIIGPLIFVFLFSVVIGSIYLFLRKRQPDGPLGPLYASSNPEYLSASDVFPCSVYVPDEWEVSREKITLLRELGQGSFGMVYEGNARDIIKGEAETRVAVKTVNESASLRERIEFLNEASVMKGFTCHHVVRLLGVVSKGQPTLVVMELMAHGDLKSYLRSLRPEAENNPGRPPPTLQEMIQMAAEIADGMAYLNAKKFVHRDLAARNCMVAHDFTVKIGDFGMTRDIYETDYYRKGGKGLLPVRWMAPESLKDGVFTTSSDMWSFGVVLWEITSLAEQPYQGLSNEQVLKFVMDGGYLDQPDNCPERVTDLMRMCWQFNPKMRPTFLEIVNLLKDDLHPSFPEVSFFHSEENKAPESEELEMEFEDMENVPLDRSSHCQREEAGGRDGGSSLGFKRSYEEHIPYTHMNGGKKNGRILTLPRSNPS
In short: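 Membranes from HEK293 cells stably expressing C9-tagged human IR-A were used in a WGA-bead SPA competition assay in 50 mM Tris-HCl pH 7.5, 150 mM NaCl, 0.1% fatty-acid-free BSA. Ten-point 3-fold dilutions were incubated 10 h at room temperature before scintillation counting. Percent specific inhibition was calculated after nonspecific-binding correction, from three independent runs.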

[2] = target: T2, human holoIR-A over-expressed in HEK293 cells (Homo sapiens, UniProt P06213); test: holoIR-A auto-phosphorylation assay (ELISA); type: cell-based
T2 construct: expressed in transfected cells; host or cells: HEK293, stably transfected
T2 sequence (P06213 28-1370 isoform P06213-2 limits assumed): as the sequence (P06213 28-1370 isoform P06213-2 limits assumed) above
T2 sequence (P06213 763-1382 partner limits assumed): as the sequence (P06213 763-1382 partner limits assumed) above
Method: Phosphorylation was quantified using an ELISA technique. Ninety-six well, flat-bottom microplates (Greiner Bio-One) were pre-coated with 2 µg mL^−1 anti-C9 monoclonal antibody (Rho 1D4; University of British Columbia)[27] in 20 mM sodium carbonate, pH 9.6, at 4 °C for overnight prior to the assay. On the assay day, plates were washed 3× with 0.1% Tween in 50 mM Tris Buffer Saline, pH 7.5 (TBST), and then blocked for greater than 1 h at room temperature (RT) with 1% BSA (Sigma) in TBST.
Stably transfected HEK293 cells over-expressing human holoIR-A containing a C-terminal C9 epitope tag ([…]), were plated at 6 × 10^4 cells per well serum-starved using 0.1% BSA in DMEM (Gibco) for overnight at standard tissue culture condition. […] After a 15-min incubation in lysis buffer at 4 °C, the lysate was transferred to anti-C9 antibody coated capture plate (Rho 1D4; University of British Columbia)[27]. […] After a 1 h incubation at room temperature, the secondary antibody was removed by washing 3× with TBST. Signal detection occurred with the addition of TMB, an HRP substrate (Pierce). After 5–10 min, the reaction was stopped by adding an equal volume of 2 M H2SO4, and the absorbance readings at 450 nm (A450) were recorded using a Envision plate reader (PerkinElmer). Samples were tested in three independent assay runs on three different days.
Percent specific response (y-axis) was plotted versus the log concentration of compound (x-axis) using Prism Version 9.3.1 (GraphPad Software). Individual measurements are provided as Source Data.

[3] = tested on: [holoIR-A]-expressing IM-9 human lymphoblast cells; test: holoIR-A accelerated dissociation assay of pre-bound 125I-insulin; type: binding; settings: IM-9 cells, 1:40 dilution, 16 °C, 30 min; n = 3
Method: Ice-cold 15-25 pM ^125I-insulin solution was added to IM-9 cells and incubated at 4 °C for 2.5 h for pre-bound experiments. […] Following receptor and ^125I-insulin pre-bound, the mix was quickly centrifugated and supernatant was removed. The bound ^125I-insulin and IM-9 cells were then resuspended with 16 °C pre-equilibrated HBB, pH 7.6. The ^125I-ligand/IM-9 cell mixture was aliquoted to cold compounds at 1:40 ratio, respectively. The reactions were incubated at 16 °C for 30 min to allow dissociation of prebound ^125I-insulin and then harvested by centrifugation and aspiration of the supernatant. The radioactivity of cell pellets was determined by gamma counter (Perkin Elmer). Samples were tested in three independent assay runs on three different days. Individual measurements are provided as Source Data.

[4] = target: the molecule itself; test: cryo-EM structure; IM459-complexed hIR-A^ecto, eluted with IM459 from an insulin-affinity column and purified by SEC in TBSA; focussed refinement to ca 5.0 Å

affinity for hIR (in words) ([1]; comparable to that of BHI): sub-nM
Ki ([1]; primary peptide set, mean of 3 runs, read-out: IRA Binding Ki Mean): 0.206 nM
EC50 ([2]; primary peptide set, mean of 3 runs, read-out: hIRA Phosph EC50 Mean): 7.36 nM
hIRA Phosph EC50 Run 1 ([2]; primary peptide set, run 1): 6.534 nM
hIRA Phosph EC50 Run 2 ([2]; primary peptide set, run 2): 8.090 nM
weaker activity than BHI in an hIR autophosphorylation assay ([2]; relative to biosynthetic human insulin): ~2.5 fold
Molecule: CC[C@H](C)[C@H](NC(=O)[C@H](CCCCN)NC(=O)C(C)(C)NC(=O)[C@H](Cc1c[nH]c2ccccc12)NC(=O)[C@H](CCC(=O)O)NC(=O)[C@H](CCC(N)=O)NC(=O)[C@H](CCC(=O)O)NC(=O)[C@H](CC(C)C)NC(=O)[C@H](CO)NC(=O)Cc1ccc(CN)cc1)C(=O)N[C@@H](CCC(=O)O)C(=O)N[C@H]1CSSC[C@@H](C(=O)N2CCC[C@H]2C(=O)N2CCC[C@H]2C(=O)N[C@@H](CCCCN)C(=O)N[C@@H](CCCCN)C(=O)N[C@@H](C)C(=O)N[C@@H](Cc2ccc(OC)cc2)C(=O)N[C@@H](Cc2ccc(O)cc2)C(=O)N[C@@H](CCCCN)C(=O)N[C@@H](Cc2c[nH]c3ccccc23)C(=O)N[C@@H](Cc2ccccc2)C(=O)N[C@@H](CCC(=O)O)C(=O)N[C@@H](CCCNC(=N)N)C(=O)N[C@@H](CCC(N)=O)C(=O)N[C@@H](CC(C)C)C(=O)N[C@@H](CCCCN)C(N)=O)NC(=O)[C@H](CCCCN)NC(=O)CNC(=O)[C@H](Cc2ccc(O)cc2)NC(=O)[C@H](C(C)C)NC(=O)[C@H](CCC(=O)O)NC1=O [IM459] (X1-SLEQEW[Aib]KIECEVYGKCPPKKAY(Me)YKWFERQLK-NH2; disulfide 11-17)
effect on dissociation of pre-bound I125-insulin tracer from native membrane-expressed hIR (in words) [3]: decreases dissociation of the pre-bound insulin tracer

B1: hIR-A^ecto (insulin receptor isoform A ectodomain, residues 1-914) (domain or fragment, human, UniProt P06213-2 28-941, looked up)
chain: HLYPGEVCPGMDIRNNLTRLHELENCSVIEGHLQILLMFKTRPEDFRDLSFPKLIMITDYLLLFRVYGLESLKDLFPNLTVIRGSRLFFNYALVIFEMVHLKELGLYNLMNITRGSVRIEKNNELCYLATIDWSRILDSVEDNYIVLNKDDNEECGDICPGTAKGKTNCPATVINGQFVERCWTHSHCQKVCPTICKSHGCTAEGLCCHSECLGNCSQPDDPTKCVACRNFYLDGRCVETCPPPYYHFQDWRCVNFSFCQDLHHKCKNSRRQGCHQYVIHNNKCIPECPSGYTMNSSNLLCTPCLGPCPKVCHLLEGEKTIDSVTSAQELRGCTVINGSLIINIRGGNNLAAELEANLGLIEEISGYLKIRRSYALVSLSFFRKLRLIRGETLEIGNYSFYALDNQNLRQLWDWSKHNLTITQGKLFFHYNPKLCLSEIHKMEEVSGTKGRQERNDIALKTNGDQASCENELLKFSYIRTSFDKILLRWEPYWPPDFRDLLGFMLFYKEAPYQNVTEFDGQDACGSNSWTVVDIDPPLRSNDPKSQNHPGWLMRGLKPWTQYAIFVKTLVTFSDERRTYGAKSDIIYVQTDATNPSVPLDPISVSNSSSQIILKWKPPSDPNGNITHYLVFWERQAEDSELFELDYCLKGLKLPSRTWSPPFESEDSQKHNQSEYEDSAGECCSCPKTDSQILKELEESSFRKTFEDYLHNVVFVPRPSRKRRSLGDVGNVTVAVPTVAAFPNTSSTSVPTSPEEHRPFEKVVNKESLVISGLRHFTGYRIELQACNQDTPEERCSVAAYVSARTMPEAKADDIVGPVTHEIFENNVVHLMWQEPKEPNGLIVLYEVSYRRYGDEELHLCVSRKHFALERGCRLRGLSPGNYSVRIRATSLAGNGSWTEPTYFYVTDYLDVPSN
notes: written as one chain of the [αβ]2 dimer; also called hIR ectodomain
binding result [4]: binds
